{"source": "paper PMC3565751", "about": "“The Feasibility of Enzyme Targeted Activation for Amino Acid/Dipeptide Monoester Prodrugs of Floxuridine; Cathepsin D as a Potential Targeted Enzym” (Molecules, 2012)", "key": {"[1]": {"set-up": "method as in PMID 18719516", "conditions": "pH 7.4 phosphate buffer; mean ± s.d.; ref [50]; cited from earlier work"}, "Capan-2 cell homogenate": {"tested_on": "Capan-2 cell homogenate", "assay": "Prodrug hydrolysis in Capan-2 cell homogenate with the presence and the absence of selective enzyme inhibitors", "assay_type": "in vitro ADME", "conditions": "37 °C; for Half Life, DPP 3 Inhibitor: Capan-2 cell homogenate with 1,10-phenanthroline; for Half Life, DPP 3 Inhibitor / Half Life, TPP 2 Inhibitor / Half Life, Cathepsin D Inhibitor / Half Life, Aminopeptidase Inhibitor: pH 7.4; for Half Life, TPP 2 Inhibitor: Capan-2 cell homogenate with H-Ala-Ala-Phe-CMK CF3CO2H; for Half Life, Cathepsin D Inhibitor: Capan-2 cell homogenate with pepstatin A; for Half Life, Aminopeptidase Inhibitor: Capan-2 cell homogenate with puromycin; for Half Life, Capan-2 Cell Homogenate: no inhibitor, pH 7.4 phosphate buffer, 200 µM substrate, mean ± s.d.", "description": "Hydrolysis StudiesPreparation of Capan-2 cell homogenates. Preparation of cell homogenates has been reported previously. Confluent Capan-2 cells (2 plates; 150 mm × 25 mm plate) were rinsed with saline twice. The cells were washed off with 5 mL of pH 7.4 phosphate buffer (10 mmol/L) and the lysed cells by ultrasonication (Micro ultrasonic cell disrupter Model KT40, Kontes, Vineland, NJ, USA) were spun down by centrifugation.\n(§1) Preparation of Cytosolic Enzyme Extract. Confluent Caco-2 cells and Capan-2 cells (2 plates; 150 mm × 25 mm plate) were rinsed with saline twice. The cells were washed off with 1 mL of pH 7.4 phosphate buffer (10 mmol/L) and the enzymes were extracted through 30 gauge needle 10 times in ice-cold bath. Cell suspension was spun at 10,000 × g for 2 h at 4 °C and the supernatant was spun at 39,000 × g for 2 h at 4 °C. Protein amount was quantified with the Bio-Rad (Hercules, CA, USA) DC Protein Assay using bovine serum albumin as a standard. The protein amount was adjusted to 500 µg/mL and the hydrolysis reactions were carried out in 96-well plates (Corning). Caco-2 cells and Capan-2 cell suspensions (250 µL) were placed in triplicate wells either presence or absence of various inhibitors, the reactions were started with the addition of substrate (200 µM), and wells were incubated at 37 °C for 120 min (time points; 0, 5, 10, 30, 60, and 120 min). At each time point, aliquot sample (35 µL) was removed and added to 150 µL of acetonitrile (ACN) with 0.1% TFA to prevent the further degradation. The mixtures were filtered with a 0.45 µm filters at 1,000 × g for 10 min at 4 °C. The filtrate wasthen analyzed via reverse-phaseHPLC.\n(§2) The initial rates of hydrolysis were used to obtain the apparent first-order rate constants and estimate the half-lives. The apparent first-order degradation rate constants of various floxuridine prodrugs at 37 °C were determined by plotting the logarithm of prodrug remaining as a function of time. The slopes of these plots are related to the rate constant, k, and given by:\nk = 2.303 × slope (log C vs. time) (1)\nThe degradation half-lives were then estimated by the equation: […]\n(§3) The concentrations of prodrugs and their metabolites were determined on a Waters HPLC system (Waters, Inc., Milford, MA, USA). The HPLC system consisted of two Waters pumps (model 515), a Waters autosampler (WISP model 712), and a Waters UV detector (996 photodiode array detector). The system was controlled by Waters Millennium 32 software (version 3.0.1). Samples were injected onto a Waters Xterra C18 reverse-phase column (5 µm, 4.6 × 250 mm) equipped with a guard column. The compounds were eluted using gradient method. All prodrugs were run with the solvent B gradient changing 0% to 56% at a rate of 2%/min during a 28-min run. Standard curves generated for each prodrug and their parent drugs were used for quantitation of integrated area under peaks."}, "human cathepsin D": {"target": "T1, human cathepsin D (Homo sapiens, UniProt P07339)", "T1 construct": "cathepsin B (human liver), and cathepsin D (human liver) were obtained from Sigma Chemical Co; purchased Sigma Chemical Co (St. Louis, MO, USA); host or cells: human liver (tissue-derived)", "T1 sequence (P07339 169-412 limits assumed)": "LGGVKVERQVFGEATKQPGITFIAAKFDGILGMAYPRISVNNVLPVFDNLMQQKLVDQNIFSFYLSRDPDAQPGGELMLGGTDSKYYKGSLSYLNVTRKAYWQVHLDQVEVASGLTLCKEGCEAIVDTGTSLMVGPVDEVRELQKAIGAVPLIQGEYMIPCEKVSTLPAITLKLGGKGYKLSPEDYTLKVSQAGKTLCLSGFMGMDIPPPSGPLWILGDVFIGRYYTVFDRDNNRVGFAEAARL", "T1 sequence (P07339 65-162 limits assumed)": "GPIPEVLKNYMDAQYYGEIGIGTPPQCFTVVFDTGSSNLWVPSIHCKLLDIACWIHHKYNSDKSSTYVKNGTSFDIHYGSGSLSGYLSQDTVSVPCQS", "assay": "Prodrug stability with human cathepsin D", "assay_type": "biochemical", "conditions": "pH 7.4 phosphate buffer, 37 °C, 200 µM substrate", "source_text": "(§4) The high expression levels of cathepsins in tumors have been reported. It has been investigated if the protein levels of cathepsin B and D would associate with pathological parameters in order to assess the difference in protein levels of cathepsins as possible tumor biomarkers. Cathepsin B, one of the highest gene expressions in enzymes of Capan-2 cell, is a cysteine endopeptidase and reportedly has similar activity to carboxypeptidase and peptidyl-dipeptidase. On the other hand, cathepsin D has been reported that it preferentially hydrolyzes the peptide bond of bulky hydrophobic amino acids and the peptide bond between Phe-Phe of Bz-Arg-Gly-Phe-Phe-Pro-4MbNA [75, 76, 77]. The metabolic stability of floxuridine prodrugs was assessed using human cathepsin B and D in pH 7.4 phosphate buffer. […] However, the enzyme specificity between cathepsin B and D in prodrug activation for those two prodrugs was not observed.\n(§5) Prodrug stability with Cathepsin B and D. Lyophilized enzyme powder was dissolved and adjusted to 2.5 mg/mL of pure enzyme, human cathepsin B and D. The hydrolysis reactions were immediately started by adding substrates (200 µM) in 96-well plates (Corning). The reactions were carried out at 37 °C for 120 min (time points; 0, 5, 10, 30, 60, and 120 min). At each time point, aliquot sample (35 µL) was removed and added to 150 µL of acetonitrile (ACN) with 0.1% TFA. The mixtures were filtered with a 0.45 µm filters at 1,000 × g for 10 min at 4 °C. The filtrate was then analyzed via reverse-phase HPLC.\n(§6) The initial rates of hydrolysis were used to obtain the apparent first-order rate constants and estimate the half-lives. The apparent first-order degradation rate constants of various floxuridine prodrugs at 37 °C were determined by plotting the logarithm of prodrug remaining as a function of time. […]\n(§7) The concentrations of prodrugs and their metabolites were determined on a Waters HPLC system (Waters, Inc., Milford, MA, USA). […] Standard curves generated for each prodrug and their parent drugs were used for quantitation of integrated area under peaks."}, "human cathepsin B": {"target": "T2, human cathepsin B (Homo sapiens, UniProt P07858)", "T2 construct": "cathepsin B (human liver), and cathepsin D (human liver) were obtained from Sigma Chemical Co; purchased Sigma Chemical Co (St. Louis, MO, USA); host or cells: human liver (tissue-derived)", "assay": "Prodrug stability with human cathepsin B", "assay_type": "biochemical", "conditions": "pH 7.4 phosphate buffer, 37 °C, 200 µM substrate", "source_text": "as §4, §5, §6, §7"}, "[2]": {"tested_on": "Capan-2 cell homogenates and cytosolic enzyme extracts", "assay": "Prodrug stability in cytosolic enzyme extract versus whole cell homogenate of Capan-2 cells", "assay_type": "in vitro ADME", "conditions": "for Fold longer half life (stability improved) in cytosolic extract than in Capan-2 cell homogenate: 37 °C, pH 7.4 phosphate buffer", "description": "In stability studies of test compounds in cell homogenates, the location of enzymes in living cells is not considered and the inaccessible enzymes in vivo condition may be able to degrade those analytes in this in vitro setting. Therefore, the result of prodrug stabilities in cell homogenate may be different to one in vivo, where all enzymes are arranged in all specific locations. The experiments of prodrug activation concerning the location of enzymes in cells were performed at 37 °C in Capan-2 cell homogenates and in cytosolic enzyme extracts. For the comparison purpose, the same experiments were performed at 37 °C in Caco-2 cell homogenates and in cytosolic enzyme extracts. […] The difference between them was minimal (1.4- to 2.5 fold). […] In Capan-2 cells, the stabilities of 5′-O-L-phenylalanyl-L-glycylfloxuridine and 5′-O-L-phenylalanylfloxuridine were improved 7.4- and 7.3-fold, while the ones of 5′-O-L- phenylalanyl-L-tyrosylfloxuridine and 5′-O-L-glycyl-L-leucylfloxuridine were declined 3.9- and 6.0-fold, respectively.\nas §1, §2, §3"}, "Capan-2 cell lines": {"tested_on": "Capan-2 cell lines", "assay": "Cell proliferation (XTT) assay", "assay_type": "cell-based", "conditions": "4 mmol/L, 4 h drug treatment", "description": "The percentage of growth inhibition for amino acid/dipeptide monoester prodrugs of floxuridine in Capan-2 cell was evaluated via 2,3-bis[2-methoxy-4-nitro-5-sulfophenyl]-2H-tetrazolium-5-carboxanilideinner salt (XTT) assays (Figure 3). The growth inhibitory effect of tested floxuridine prodrugs after 4 h drug treatment range from 0.0–91.1% at 4 h, 0.0–84.2% at 8 h, and 41.8–84.8% at 24 h in Capan-2 cell lines. […] While specific activation enzymes for 5′-O-L-leucyl-L-glycylfloxuridine and 5′-O-L-phenylalanylfloxuridine have not been identified, those enzymes may be highly localized at the plasma membrane and cytosol. Thus, the activation of those prodrugs took place immediately after translocation of prodrugs into the cells and started inhibiting tumor growth. Leucine and phenylalanine are reportedly good substrates for aminopeptidases and carboxylesterase, respectively.\nCell proliferation studies were conducted with Capan-2 cell lines. The cells were seeded into 96-well plates at […] per well and allowed to attach/grow for 24 h before drug solutions were added. The culture medium (RPMI-1640 + 10% fetal bovine serum) was removed and the cells were gently washed once with sterile pH 6.0 uptake buffer (145 mM NaCl, 0.5 mM MgCl2, 1 mM NaH2PO4, 1 mM CaCl2, 3 mM KCl, 5 mM glucose, and 5 mM MES). Floxuridine prodrugs and floxuridine were diluted in pH 6.0 uptake buffer to 4 mmol/L using no drug as a 100% viability control. The wash buffer was removed and 25 µL drug solution per well were added and incubated at 37 °C for 4 h in the cell incubator. After this time, the drug solutions were removed and the cells were again gently washed twice with sterile uptake buffer. RPMI-1640 was then added to each well after washing. The cells were allowed to recover for 4 h, 8 h, or 24 h before evaluating cell viability via 2,3-bis[2-methoxy-4-nitro-5-sulfophenyl]-2H-tetrazolium-5-carboxanilide inner salt (XTT) assays. […] Absorbance readings at 450 nm were recorded."}}}
{"smiles": "N[C@@H](Cc1ccccc1)C(=O)NCC(=O)OC[C@H]1O[C@@H](n2cc(F)c(=O)[nH]c2=O)C[C@@H]1O", "note": "[5'-O-L-phenylalanyl-L-glycyl-floxuridine]", "values": [{"measurement": "Half Life, Phosphate Buffer pH 7.4", "setting": "[1]", "value": "132.1 ± 10.2", "unit": "min"}, {"measurement": "Half Life, DPP 3 Inhibitor", "setting": "Capan-2 cell homogenate", "value": "30.1 ± 10.0", "unit": "min"}, {"measurement": "Half Life, TPP 2 Inhibitor", "setting": "Capan-2 cell homogenate", "value": "19.6 ± 0.4", "unit": "min"}, {"measurement": "Half Life, Cathepsin D Inhibitor", "setting": "Capan-2 cell homogenate", "value": "10.2 ± 3.0", "unit": "min"}, {"measurement": "Half Life, Aminopeptidase Inhibitor", "setting": "Capan-2 cell homogenate", "value": "25.7 ± 0.4", "unit": "min"}, {"measurement": "Half Life, Capan-2 Cell Homogenate", "setting": "Capan-2 cell homogenate", "value": "4.3 ± 0.9", "unit": "min"}, {"measurement": "Stability (degradation) against cathepsin D compared with absence of enzyme", "setting": "human cathepsin D", "value": "significant degradation"}, {"measurement": "Stability (degradation) against cathepsin B compared with absence of enzyme", "setting": "human cathepsin B", "value": "significant degradation"}, {"measurement": "Hydrolysis products detected in cell homogenates and cytosolic enzyme extracts", "setting": "[2]", "value": "only floxuridine was detected"}, {"measurement": "Fold longer half life (stability improved) in cytosolic extract than in Capan-2 cell homogenate", "setting": "[2]", "value": 7.4, "unit": "fold"}, {"measurement": "Growth inhibition of cancer cells at 4 h and 8 h", "setting": "Capan-2 cell lines", "value": "did not exhibit the growth inhibition of cancer cells"}]}
{"smiles": "N[C@@H](Cc1ccccc1)C(=O)OC[C@H]1O[C@@H](n2cc(F)c(=O)[nH]c2=O)C[C@@H]1O", "note": "[5'-O-L-phenylalanylfloxuridine]", "values": [{"measurement": "Half Life, Phosphate Buffer pH 7.4", "setting": "[1]", "value": "187.0 ± 19.0", "unit": "min"}, {"measurement": "Half Life, DPP 3 Inhibitor", "setting": "Capan-2 cell homogenate", "value": "28.9 ± 10.7", "unit": "min"}, {"measurement": "Half Life, TPP 2 Inhibitor", "setting": "Capan-2 cell homogenate", "value": "15.3 ± 0.6", "unit": "min"}, {"measurement": "Half Life, Cathepsin D Inhibitor", "setting": "Capan-2 cell homogenate", "value": "60.6 ± 4.6", "unit": "min"}, {"measurement": "Half Life, Aminopeptidase Inhibitor", "setting": "Capan-2 cell homogenate", "value": "48.7 ± 0.37", "unit": "min"}, {"measurement": "Half Life, Capan-2 Cell Homogenate", "setting": "Capan-2 cell homogenate", "value": "3.0 ± 0.1", "unit": "min"}, {"measurement": "Hydrolysis products detected in cell homogenates and cytosolic enzyme extracts", "setting": "[2]", "value": "only floxuridine was detected"}, {"measurement": "Fold longer half life (stability improved) in cytosolic extract than in Capan-2 cell homogenate", "setting": "[2]", "value": 7.3, "unit": "fold"}, {"measurement": "Onset of growth inhibition of tumor cells", "setting": "Capan-2 cell lines", "value": "immediately inhibited the growth of tumor cells"}]}
